Toxic doses and inconclusive results are not listed. Rule for the calls: active = survival T/C of 150% or more; inactive = T/C below 125% in these data.
Test system: BDF1 mice, P388 leukemia ip, median survival T/C
Experiment: NCI In Vivo Anticancer Drug Screen. Data for tumor model P388 Leukemia (intraperitoneal) in B6D2F1 (BDF1) mice
Details: endpoint: median survival time, higher = longer survival
How it was run: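 Reported as T/C, where T is the survival measurement in dosed animals and C the same measurement in vehicle controls.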

[1] = dose: 50.0 mg/kg/injection, schedule: Q04DX003 (ip), vehicle: saline
[2] = dose: 100.0 mg/kg/injection, schedule: Q01DX009 (ip), vehicle: Klucel (hydroxypropylcellulose) (HPC)
[3] = dose: 100.0 mg/kg/injection, schedule: Q04DX003 (ip), vehicle: Klucel (hydroxypropylcellulose) (HPC)
[4] = dose: 200.0 mg/kg/injection, schedule: Q01DX009 (ip), vehicle: Klucel (hydroxypropylcellulose) (HPC)
[5] = dose: 200.0 mg/kg/injection, schedule: Q04DX003 (ip), vehicle: Klucel (hydroxypropylcellulose) (HPC)
[6] = dose: 400.0 mg/kg/injection, schedule: Q04DX003 (ip), vehicle: Klucel (hydroxypropylcellulose) (HPC)
[7] = dose: 50.0 mg/kg/injection, schedule: Q04DX003 (ip), vehicle: saline sonified
[8] = dose: 100.0 mg/kg/injection, schedule: Q04DX003 (ip), vehicle: saline sonified
[9] = dose: 50.0 mg/kg/injection, schedule: Q01DX009 (ip), vehicle: saline with Tween-80
[10] = dose: 100.0 mg/kg/injection, schedule: Q01DX009 (ip), vehicle: saline with Tween-80
[11] = dose: 200.0 mg/kg/injection, schedule: Q01DX009 (ip), vehicle: saline with Tween-80
[12] = dose: 100.0 mg/kg/injection, schedule: Q04DX003 (ip), vehicle: saline with Tween-80
[13] = dose: 200.0 mg/kg/injection, schedule: Q04DX003 (ip), vehicle: saline with Tween-80
[14] = dose: 400.0 mg/kg/injection, schedule: Q04DX003 (ip), vehicle: saline with Tween-80

Measured: T/C

COc1ccc(CC2c3ccccc3CC[N+]2(C)C)cc1Oc1ccc(CC2c3ccccc3CC[N+]2(C)C)cc1 (configuration not stated)
inactive: dose: 0.39 mg/kg/injection, schedule: Q04DX003 (ip), vehicle: saline 98 % of control | dose: 0.78 mg/kg/injection, schedule: Q04DX003 (ip), vehicle: saline 105 % of control | dose: 1.56 mg/kg/injection, schedule: Q04DX003 (ip), vehicle: saline with Tween-80 104 % of control

CCCCCCC(C)NN (configuration not stated)
inactive: dose: 12.5 mg/kg/injection, schedule: Q04DX003 (ip), vehicle: saline 98 % of control | dose: 25.0 mg/kg/injection, schedule: Q04DX003 (ip), vehicle: saline 105 % of control | [1] 107 % of control

CCOC(=O)C(C)Cl (configuration not stated)
inactive: dose: 50.0 mg/kg/injection, schedule: Q01DX009 (ip), vehicle: Klucel (hydroxypropylcellulose) (HPC) 104 % of control | [2] 100 % of control | [3] 110 % of control | [4] 91 % of control | [5] 105 % of control | [6] 105 % of control

C1CC[N-]CC1.[Cl][Pt+2][Cl].[NH-]C1CC1
active: dose: 1.5 mg/kg/injection, schedule: Q01DX005 (ip), vehicle: distilled water + Tween-80 153 % of control | dose: 1.5 mg/kg/injection, schedule: Q01DX005 (ip), vehicle: water 150 % of control | dose: 3.0 mg/kg/injection, schedule: Q01DX005 (ip), vehicle: water 164 % of control | dose: 6.0 mg/kg/injection, schedule: Q01DX005 (ip), vehicle: distilled water + Tween-80 157 % of control | dose: 6.0 mg/kg/injection, schedule: Q01DX005 (ip), vehicle: water 185 % of control | dose: 12.0 mg/kg/injection, schedule: Q01DX005 (ip), vehicle: distilled water + Tween-80 176 % of control | dose: 12.0 mg/kg/injection, schedule: Q01DX005 (ip), vehicle: water 192 % of control

CCCCCCCCCCC[N+](C)(C)CC[N+](C)(C)CCCCCCCCCCC
inactive: dose: 3.13 mg/kg/injection, schedule: Q01DX009 (ip), vehicle: saline 107 % of control | dose: 6.25 mg/kg/injection, schedule: Q01DX009 (ip), vehicle: saline 110 % of control | dose: 12.5 mg/kg/injection, schedule: Q01DX009 (ip), vehicle: saline 111 % of control

N#CC(c1ccccc1)C1CCCCC1 (configuration not stated)
inactive: dose: 75.0 mg/kg/injection, schedule: Q04DX003 (ip), vehicle: saline 111 % of control | dose: 150.0 mg/kg/injection, schedule: Q04DX003 (ip), vehicle: saline 107 % of control | dose: 300.0 mg/kg/injection, schedule: Q04DX003 (ip), vehicle: saline 115 % of control

CNC(=O)Oc1coc(CCl)cc1=O
inactive: dose: 12.0 mg/kg/injection, schedule: Q01DX009 (ip), vehicle: Klucel (hydroxypropylcellulose) (HPC) 95 % of control | dose: 16.5 mg/kg/injection, schedule: Q01DX009 (ip), vehicle: saline 108 % of control | dose: 18.0 mg/kg/injection, schedule: Q01DX009 (ip), vehicle: Klucel (hydroxypropylcellulose) (HPC) 86 % of control | dose: 25.0 mg/kg/injection, schedule: Q01DX009 (ip), vehicle: saline 120 % of control | dose: 27.0 mg/kg/injection, schedule: Q01DX009 (ip), vehicle: Klucel (hydroxypropylcellulose) (HPC) 100 % of control | dose: 37.5 mg/kg/injection, schedule: Q01DX009 (ip), vehicle: saline 116 % of control | dose: 40.0 mg/kg/injection, schedule: Q01DX009 (ip), vehicle: Klucel (hydroxypropylcellulose) (HPC) 118 % of control | dose: 60.0 mg/kg/injection, schedule: Q01DX009 (ip), vehicle: Klucel (hydroxypropylcellulose) (HPC) 118 % of control

Cc1ccc(N2CCN(CCCN3CCN(c4ccc(Cl)cc4)CC3)CC2)cc1
inactive: [7] 100 % of control | [8] 95 % of control | dose: 200.0 mg/kg/injection, schedule: Q04DX003 (ip), vehicle: saline sonified 95 % of control

COc1cc2ccc(C(C)NCC(=O)O)cc2cc1OC (configuration not stated)
inactive: [2] 100 % of control | [3] 100 % of control | [4] 104 % of control | [5] 100 % of control | dose: 400.0 mg/kg/injection, schedule: Q01DX009 (ip), vehicle: Klucel (hydroxypropylcellulose) (HPC) 109 % of control | [6] 109 % of control

OC1CC2CC1C(Cl)C2Cl (configuration not stated)
inactive: [9] 113 % of control | [10] 96 % of control | [11] 98 % of control

O=C(OC1(c2ccccc2)CCC1)c1cc([N+](=O)[O-])cc([N+](=O)[O-])c1
inactive: dose: 100.0 mg/kg/injection, schedule: Q01DX001 (ip), vehicle: saline with Tween-80 97 % of control | dose: 200.0 mg/kg/injection, schedule: Q01DX001 (ip), vehicle: saline with Tween-80 96 % of control | dose: 400.0 mg/kg/injection, schedule: Q01DX001 (ip), vehicle: saline with Tween-80 99 % of control

O=[N+]([O-])c1ccc(/C=C/c2nccs2)o1
inactive: [3] 100 % of control | [5] 103 % of control

c1ccc(C2SCCSCCS2)cc1
inactive: [3] 90 % of control | [5] 100 % of control | [6] 100 % of control

CC(=O)OC1=NC(C)c2c1cc(OC(C)=O)[nH]c2=O (configuration not stated)
inactive: dose: 6.25 mg/kg/injection, schedule: Q01DX009 (ip), vehicle: Klucel (hydroxypropylcellulose) (HPC) 88 % of control | dose: 12.5 mg/kg/injection, schedule: Q01DX009 (ip), vehicle: Klucel (hydroxypropylcellulose) (HPC) 96 % of control | dose: 25.0 mg/kg/injection, schedule: Q01DX009 (ip), vehicle: Klucel (hydroxypropylcellulose) (HPC) 96 % of control | [3] 112 % of control | dose: 133.0 mg/kg/injection, schedule: Q04DX003 (ip), vehicle: Klucel (hydroxypropylcellulose) (HPC) 121 % of control

CC(C)(C)OC(=O)NC(Cc1cncn1Cc1ccccc1)C(=O)NC(Cc1c[nH]c2ccccc12)C(=O)OCc1ccccc1 (configuration not stated)
inactive: [1] 105 % of control | dose: 100.0 mg/kg/injection, schedule: Q04DX003 (ip), vehicle: saline 106 % of control | dose: 200.0 mg/kg/injection, schedule: Q04DX003 (ip), vehicle: saline 102 % of control | dose: 400.0 mg/kg/injection, schedule: Q04DX003 (ip), vehicle: saline 100 % of control

CCOC(=O)C1CC(=O)c2ccccc2C1 (configuration not stated)
inactive: dose: 12.5 mg/kg/injection, schedule: Q01DX009 (ip), vehicle: other 87 % of control | dose: 100.0 mg/kg/injection, schedule: Q01DX009 (ip), vehicle: other 96 % of control | dose: 200.0 mg/kg/injection, schedule: Q01DX009 (ip), vehicle: other 110 % of control

COC1(c2cccs2)OC1(C)C (configuration not stated)
inactive: [10] 95 % of control | [12] 100 % of control | [11] 95 % of control | [13] 91 % of control | dose: 400.0 mg/kg/injection, schedule: Q01DX009 (ip), vehicle: saline with Tween-80 95 % of control | [14] 104 % of control

O=Cc1ccc(N2CCCCC2)cc1
inactive: [3] 91 % of control | [5] 95 % of control

CCCCCCCCCC(=O)NC(C)C(O)c1ccccc1 (configuration not stated)
inactive: [9] 109 % of control | [10] 100 % of control | [11] 89 % of control

CC12CCC3C(CCC4CC5(CCC43C)CO5)C1CCC2=O (configuration not stated)
inactive: [12] 103 % of control | [13] 103 % of control | [14] 98 % of control

CCC12CCCN3C(=O)CC(C(=O)CC1)C32 (configuration not stated)
inactive: dose: 25.0 mg/kg/injection, schedule: Q04DX003 (ip), vehicle: saline sonified 95 % of control | [7] 109 % of control | [8] 109 % of control

Cc1ccc(S(=O)(=O)N2CCC(C(=O)O)(c3ccccc3)CC2)cc1
inactive: [12] 100 % of control | [13] 95 % of control | [14] 95 % of control

CS(=O)(=O)OCCC(=O)N1CCN(C(=O)CCOS(C)(=O)=O)CC1
active: dose: 11.2 mg/kg/injection, schedule: Q01DX010 (ip), vehicle: saline 150 % of control | dose: 22.5 mg/kg/injection, schedule: Q01DX010 (ip), vehicle: saline 163 % of control | dose: 45.0 mg/kg/injection, schedule: Q01DX010 (ip), vehicle: saline 150 % of control | dose: 90.0 mg/kg/injection, schedule: Q01DX010 (ip), vehicle: saline 250 % of control

CCOC(=O)C[n+]1c(C)sc2ccccc21
inactive: dose: 50.0 mg/kg/injection, schedule: Q01DX005 (ip), vehicle: saline 99 % of control | dose: 100.0 mg/kg/injection, schedule: Q01DX005 (ip), vehicle: saline 92 % of control | dose: 200.0 mg/kg/injection, schedule: Q01DX005 (ip), vehicle: saline 101 % of control

Reference: PubChem BioAssay AID328 (DTP/NCI, 2004)
